{"source": "patent US20230226012A1", "about": "“USE OF USNIC ACID, A SALT OF USNIC ACID, OR A FORMULATION THEREOF IN THE PREPARATION OF ANTI-AVIAN COCCIDIOSIS DRUGS OR FEED ADDITIVES” (priority 2022, published 2023)", "tested_on": "Eimeria tenella", "experiment": "Anticoccidial test in chickens orally inoculated with sporulated oocysts of Eimeria tenella (anticoccidial index, ACI)", "assay_type": "in vivo", "details": "for Lesion value: cecum, 7th day after infection; for Oocyst value: converted according to Table 2; for Clinical symptoms (bloody stool): after infection", "text": "Male chicks from layer aged 1 day were selected and raised to 12-day-old. Each was weighed, while excluding thin or overweight individuals, healthy chickens with individual weight differences of less than 10 g were selected, and randomly divided into thirteen groups with each group including thirty chickens. Among them, ten groups were used as drug groups, one group as a model group, one group as a diclazuril group, and one group as a blank control group. Each chicken aged 12 days of the drug groups was subject to drug administration through mixing with feed, while that of the diclazuril group was administrated though drinking water. Each chicken aged 14 days in the drug groups, the diclazuril group and the model group was orally inoculated with 1.0×10^4 sporulated oocysts of Eimeria tenella. Each experimental chicken in all groups was free to feed and drink water until the test was over on the seventh day.\nThe anticoccidial index (ACI) criteria were calculated by\nthe calculation formula of Merck Corporation (USA), that is:\nACI=(relative weight gain rate+survival rate)×100−(lesion value+oocyst value).\nAmong them, the relative weight gain rate was calculated by\nweighing each chicken at the beginning and end of the test, respectively, to calculate the average and relative weight gain rates. Relative weight gain rate=(test group weight gain rate/blank control group weight gain rate)×100%.\nThe survival rate was calculated by\nrecording the number of dead chickens in each group, performing an autopsy to determine the cause of death, and calculating the survival rate. Survival rate=(number of chickens alive at the end of the test/number of chickens in the test group)×100%\nThe lesion value was calculated by\nslaughtering each chicken on the 7th day after infection to take the cecum (as shown in FIG. 5-6), and scoring the intestinal lesion of each chicken according to the lesion scoring method designed by […] and Reid (1970), and converting the lesion score into the lesion value.\nLesion scoring: (in case of lesion inconsistence between both sides of cecum, the more severe shall prevail):\n0 point: no macroscopic lesions;\n1 point: there are a few of petechiae scattered in the cecal wall, the cecal wall is not thickened, and the contents therein are normal;\n2 points: the lesion number is more, the cecum contents are obviously bloody, the cecal wall is slightly thickened, and the contents therein are normal;\n3 points: there is a lot of blood or there is a cecum core (blood clot or off-white cheese-like banana-shaped blocks) in the cecum, the cecal wall is obviously thickened, and the feces contents in the cecum are poor;\n4 points: the cecum swells due to being full of a large amount of blood or cecum core with or without fecal residue, and it is also scored 4 points when the chicken dies for coccidiosis.\nLesion value (0-40)=average lesion score (0-4) for each test group×10\nThe oocyst value and the relative oocyst production (ROP) were calculated by collecting the chicken feces of each group, counting the number of oocysts in the feces according to McMaster counting, calculating the number of oocysts per gram of feces of each group, and obtaining the oocyst value by conversion according to Table 2.\nRelative oocyst production (ROP)=(average oocyst production in the test group/average oocyst production in the model group)×100%. ROP≥15%, resistant to drugs; ROP<15%, no drug resistance.\nThe criteria for determining the drug efficacy were: ACI>180, high efficacy against coccidiosis; 160<ACI<180, medium efficacy against coccidiosis; 120<ACI<160, low efficacy against coccidiosis; ACI<120, inefficacy against coccidiosis.\nMale chicks from layer aged 1 day were selected and raised to 12-day-old. Each was weighed, while excluding thin or overweight individuals, healthy chickens with individual weight differences of less than 10 g were selected, and randomly divided into 6 groups with each group including thirty chickens. […]", "key": {"[1]": {"details": "Example 2, Drug groups 1, 2 5 kg/ton in feed, Drug group 3 1:400 drinking water, diclazuril 0.2 ml/L"}, "[2]": {"details": "Example 3, Drug groups 5 kg/ton in feed, diclazuril 0.2 ml/L drinking water"}}}
{"molecule": "N#CC(c1ccc(Cl)cc1)c1c(Cl)cc(-n2ncc(=O)[nH]c2=O)cc1Cl", "note": "(stereo not drawn) [Diclazuril]", "values": [{"measurement": "Effect against avian coccidiosis (conclusion)", "setting": "Example 1", "value": "high therapeutic effect"}, {"measurement": "Clinical symptoms (bloody stool, food intake)", "setting": "Example 1, 4th to 6th day after infection", "value": "no bloody stool"}, {"measurement": "Bloody stool (feces observation)", "setting": "Example 1, 5th day after Eimeria challenge, partially mixed with blood / a large amount of feces mixed with blood / bloodless", "value": "bloodless"}, {"measurement": "ACI value", "setting": "Example 1, ACI=(relative weight gain rate+survival rate)×100−(lesion value+oocyst value), herbs 5 kg/ton in feed, diclazuril 0.2 ml/L drinking water", "value": 201.2}, {"measurement": "Relative oocyst production (ROP)", "setting": "Example 1, average oocyst production relative to model group, herbs 5 kg/ton in feed, diclazuril 0.2 ml/L drinking water", "value": 0.0, "unit": "%"}, {"measurement": "Lesion value", "setting": "Example 1, lesion value (0-40) = average lesion score ×10, herbs 5 kg/ton in feed, diclazuril 0.2 ml/L drinking water", "value": 0.0}, {"measurement": "Relative weight gain rate", "setting": "Example 1, chickens, 1.0×10^4 oocysts at 14 days of age, herbs 5 kg/ton mixed with feed, diclazuril 0.2 ml/L drinking water, 9 days, relative to blank control", "value": 101.2, "unit": "%"}, {"measurement": "Survival rate", "setting": "Example 1, chickens, 1.0×10^4 oocysts, herbs 5 kg/ton in feed, diclazuril 0.2 ml/L drinking water, 9 days", "value": 100, "unit": "%"}, {"measurement": "Criteria (drug efficacy by ACI)", "setting": "Example 1, herbs 5 kg/ton in feed, diclazuril 0.2 ml/L drinking water", "value": "High (ACI>180, high efficacy against coccidiosis)"}, {"measurement": "Oocyst value", "setting": "Example 1, oocysts per gram of feces relative to model group, herbs 5 kg/ton in feed, diclazuril 0.2 ml/L drinking water", "value": 0}, {"measurement": "Effect against avian coccidiosis (conclusion)", "setting": "Example 2", "value": "high therapeutic effect"}, {"measurement": "ACI value", "setting": "[1]", "value": 198.9}, {"measurement": "Criteria (drug efficacy by ACI)", "setting": "[1]", "value": "High (ACI>180, high efficacy against coccidiosis)"}, {"measurement": "Survival rate", "setting": "Example 2, Drug groups 1, 2 5 kg/ton in feed, Drug group 3 1:400 drinking water, diclazuril 0.2 ml/L drinking water", "value": 100, "unit": "%"}, {"measurement": "Clinical symptoms (bloody stool)", "setting": "Example 2", "value": "no bloody stool"}, {"measurement": "Lesion value", "setting": "[1]", "value": 0}, {"measurement": "Relative weight gain rate", "setting": "Example 2, chickens, 1.0×10^4 oocysts, Drug groups 1, 2 5 kg/ton in feed, Drug group 3 1:400 drinking water, diclazuril 0.2 ml/L drinking water, 9 days", "value": 98.9, "unit": "%"}, {"measurement": "Oocyst value", "setting": "[1]", "value": 0}, {"measurement": "Relative oocyst production (ROP)", "setting": "Example 2, relative to model group, Drug groups 1, 2 5 kg/ton in feed, Drug group 3 1:400 drinking water, diclazuril 0.2 ml/L", "value": 0, "unit": "%"}, {"measurement": "ACI value", "setting": "[2]", "value": 198.4}, {"measurement": "Criteria (drug efficacy by ACI)", "setting": "[2]", "value": "High (ACI>180, high efficacy against coccidiosis)"}, {"measurement": "Survival rate", "setting": "[2]", "value": 100, "unit": "%"}, {"measurement": "Clinical symptoms (bloody stool)", "setting": "Example 3", "value": "no bloody stool"}, {"measurement": "Lesion value", "setting": "[2]", "value": 0}, {"measurement": "Relative weight gain rate", "setting": "Example 3, chickens, 1.0×10^4 oocysts, Drug groups 1-3 5 kg/ton in feed, diclazuril 0.2 ml/L drinking water, 9 days", "value": 98.4, "unit": "%"}, {"measurement": "Oocyst value", "setting": "[2]", "value": 0}, {"measurement": "Relative oocyst production (ROP)", "setting": "Example 3, relative to model group, Drug groups 5 kg/ton in feed, diclazuril 0.2 ml/L drinking water", "value": 0, "unit": "%"}]}
